Experiments:
Type in all cases: in vivo
[1] = system: ryegrass, Italian (Italian ryegrass, Lolium multiflorum); assay: Test A preemergence; conditions: Lolium multiflorum, pre-emergence, 240 h, 0 to 100 scale where 0 is no effect and 100 is complete control, read-out: Ryegrass, Italian plant response rating; for pest or weed control at 31 g/ha: 31 g ai/ha, Preemergence; for pest or weed control at 125 g/ha: 125 g ai/ha, preemergence, visual injury rating, approximately 10 d
Method in brief: (§1)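 Visual injury, scored on a 0–100 scale relative to untreated controls, was recorded about 10 d after application. Treatments were a preemergence soil spray over planted seeds or a postemergence spray on plants at the one- to two-leaf stage, 2 to 10 cm tall, all in loam soil–sand blend in the greenhouse.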

[2] = system: giant foxtail (Setaria faberii); assay: Test A preemergence; conditions: Setaria faberi, pre-emergence, 240 h, 0 to 100 scale where 0 is no effect and 100 is complete control, read-out: Foxtail, Giant plant response rating; for pest or weed control at 31 g/ha: 31 g ai/ha, Preemergence; for pest or weed control at 125 g/ha: 125 g ai/ha, preemergence, visual injury rating, approximately 10 d
Method in brief: as §1

Kochia (Kochia scoparia) [3] = assay: Test A preemergence; conditions: Bassia scoparia, pre-emergence, 240 h, 0 to 100 scale where 0 is no effect and 100 is complete control, read-out: Kochia plant response rating; for pest or weed control at 31 g/ha: 31 g ai/ha, Preemergence; for pest or weed control at 125 g/ha: 125 g ai/ha, preemergence, visual injury rating, approximately 10 d
Method in brief: as §1

[4] = system: barnyardgrass (Echinochloa crus-galli); assay: Test A preemergence; conditions: Echinochloa crus-galli, pre-emergence, 240 h, 0 to 100 scale where 0 is no effect and 100 is complete control, read-out: Barnyardgrass plant response rating; for pest or weed control at 31 g/ha: 31 g ai/ha, Preemergence; for pest or weed control at 125 g/ha: 125 g ai/ha, preemergence, visual injury rating, approximately 10 d
Method in brief: as §1

[5] = system: ragweed (common ragweed, Ambrosia elatior); assay: Test A preemergence; conditions: Ambrosia artemisiifolia, pre-emergence, 240 h, 0 to 100 scale where 0 is no effect and 100 is complete control, read-out: Ragweed plant response rating; for pest or weed control at 31 g/ha: 31 g ai/ha, Preemergence; for pest or weed control at 125 g/ha: 125 g ai/ha, preemergence, visual injury rating, approximately 10 d
Method in brief: as §1

[6] = system: pigweed (Amaranthus retroflexus); assay: Test A preemergence; conditions: Amaranthus retroflexus, pre-emergence, 240 h, 0 to 100 scale where 0 is no effect and 100 is complete control, read-out: Pigweed plant response rating; for pest or weed control at 31 g/ha: 31 g ai/ha, Preemergence; for pest or weed control at 125 g/ha: 125 g ai/ha, preemergence, visual injury rating, approximately 10 d
[7] = system: ryegrass, Italian (Italian ryegrass, Lolium multiflorum); assay: Test A postemergence; conditions: Lolium multiflorum, post-emergence, 240 h, Postemergence, read-out: Ryegrass, Italian plant response rating (0 to 100 scale); for pest or weed control at 125 g/ha: 125 g ai/ha, visual rating about 10 d after treatment; for pest or weed control at 31 g/ha: 31 g ai/ha, 0 is no effect, 100 is complete control
Method in brief: as §1

corn (Zea mays) = assay: Test A postemergence; conditions: Zea mays, post-emergence, 240 h, Postemergence, read-out: Corn plant response rating (0 to 100 scale); for plant injury at 125 g/ha: 125 g ai/ha, visual rating about 10 d after treatment; for plant injury at 31 g/ha: 31 g ai/ha, 0 is no effect, 100 is complete control
Method in brief: as §1

[8] = system: blackgrass (Alopecurus myosuroides); assay: Test A postemergence; conditions: Alopecurus myosuroides, post-emergence, 240 h, Postemergence, read-out: Blackgrass plant response rating (0 to 100 scale); for pest or weed control at 125 g/ha: 125 g ai/ha, visual rating about 10 d after treatment; for pest or weed control at 31 g/ha: 31 g ai/ha, 0 is no effect, 100 is complete control
Method in brief: as §1

[9] = system: giant foxtail (Setaria faberii); assay: Test A postemergence; conditions: Setaria faberi, post-emergence, 240 h, Postemergence, read-out: Foxtail, Giant plant response rating (0 to 100 scale); for pest or weed control at 125 g/ha: 125 g ai/ha, visual rating about 10 d after treatment; for pest or weed control at 31 g/ha: 31 g ai/ha, 0 is no effect, 100 is complete control
Method in brief: as §1

Kochia (Kochia scoparia) [10] = assay: Test A postemergence; conditions: Bassia scoparia, post-emergence, 240 h, Postemergence, read-out: Kochia plant response rating (0 to 100 scale); for pest or weed control at 125 g/ha: 125 g ai/ha, visual rating about 10 d after treatment; for pest or weed control at 31 g/ha: 31 g ai/ha, 0 is no effect, 100 is complete control
Method in brief: as §1

[11] = system: barnyardgrass (Echinochloa crus-galli); assay: Test A postemergence; conditions: Echinochloa crus-galli, post-emergence, 240 h, Postemergence; for pest or weed control at 125 g/ha: 125 g ai/ha, visual rating about 10 d after treatment, read-out: Barnyardgrass plant response rating (0 to 100 scale, 0 no effect, 100 complete control); for pest or weed control at 31 g/ha: 31 g ai/ha, 0 is no effect, 100 is complete control, read-out: Barnyardgrass plant response rating (0 to 100 scale)
Method in brief: as §1

[12] = system: Galium (catchweed bedstraw, Galium aparine); assay: Test A postemergence; conditions: Galium, post-emergence, 240 h, Postemergence, read-out: Galium plant response rating (0 to 100 scale); for pest or weed control at 125 g/ha: 125 g ai/ha, visual rating about 10 d after treatment; for pest or weed control at 31 g/ha: 31 g ai/ha, 0 is no effect, 100 is complete control
Method in brief: as §1

[13] = system: ragweed (common ragweed, Ambrosia elatior); assay: Test A postemergence; conditions: Ambrosia artemisiifolia, post-emergence, 240 h, Postemergence, read-out: Ragweed plant response rating (0 to 100 scale); for pest or weed control at 125 g/ha: 125 g ai/ha, visual rating about 10 d after treatment; for pest or weed control at 31 g/ha: 31 g ai/ha, 0 is no effect, 100 is complete control
Method in brief: as §1

[14] = system: pigweed (Amaranthus retroflexus); assay: Test A postemergence; conditions: Amaranthus retroflexus, post-emergence, 240 h, Postemergence, read-out: Pigweed plant response rating (0 to 100 scale); for pest or weed control at 125 g/ha: 125 g ai/ha, visual rating about 10 d after treatment; for pest or weed control at 31 g/ha: 31 g ai/ha, 0 is no effect, 100 is complete control
Method in brief: as §1

[15] = system: wheat (Triticum aestivum); assay: Test A postemergence; conditions: Triticum aestivum, post-emergence, 240 h, Postemergence, read-out: Wheat plant response rating (0 to 100 scale); for plant injury at 125 g/ha: 125 g ai/ha, visual rating about 10 d after treatment; for plant injury at 31 g/ha: 31 g ai/ha, 0 is no effect, 100 is complete control
Method in brief: as §1

[16] = system: ducksalad (Heteranthera limosa); assay: Test B flooded paddy test; conditions: Heteranthera limosa, 250 g ai/ha, Flood; 0 to 100 scale where 0 is no effect and 100 is complete control; read-out: Ducksalad plant response rating
Method in brief: (§2)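 Rating scale 0–100 (visual, vs untreated controls) after a 13–15 d greenhouse period; application to the flood layer, 3 cm above soil and maintained; plants at 2-leaf stage when treated.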

rice (Oryra sativa) = assay: Test B flooded paddy test; conditions: Oryza sativa, 250 g ai/ha, Flood; 0 to 100 scale where 0 is no effect and 100 is complete control; read-out: Rice plant response rating
Method in brief: as §2

[17] = system: barnyardgrass (Echinochloa crus-galli); assay: Test B flooded paddy test; conditions: Echinochloa crus-galli, 250 g ai/ha, Flood; 0 to 100 scale where 0 is no effect and 100 is complete control; read-out: Barnyardgrass plant response rating
Method in brief: as §2

[18] = system: sedge, umbrella (small-flower umbrella sedge, Cyperus difformis); assay: Test B flooded paddy test; conditions: Cyperus difformis, 250 g ai/ha, Flood; 0 to 100 scale where 0 is no effect and 100 is complete control; read-out: Sedge, Umbrella plant response rating
Method in brief: as §2

CN1C[C@H](c2csc3c2CCOC3)[C@@H](C(=O)Nc2cccc(F)c2F)C1=O [Compound 1268]
95%: pest or weed control at 250 g/ha [16]
85%: pest or weed control at 250 g/ha [17]
20%: pest or weed control at 125 g/ha [1] | pest or weed control at 125 g/ha [7] | pest or weed control at 250 g/ha (rice (Oryra sativa))
80%: pest or weed control at 31 g/ha [11]
50%: pest or weed control at 31 g/ha [9]
90%: pest or weed control at 125 g/ha [2] | pest or weed control at 31 g/ha [4] | pest or weed control at 125 g/ha [4] | pest or weed control at 125 g/ha [9] | pest or weed control at 125 g/ha [11]
70%: pest or weed control at 31 g/ha [2]
0%: pest or weed control at 31 g/ha [1] | pest or weed control at 31 g/ha (Kochia (Kochia scoparia) [3]) | pest or weed control at 125 g/ha (Kochia (Kochia scoparia) [3]) | pest or weed control at 31 g/ha [5] | pest or weed control at 125 g/ha [5] | pest or weed control at 31 g/ha [6] | pest or weed control at 125 g/ha [6] | pest or weed control at 31 g/ha [7] | plant injury at 125 g/ha (corn (Zea mays)) | plant injury at 31 g/ha (corn (Zea mays)) | pest or weed control at 125 g/ha [8] | pest or weed control at 31 g/ha [8] | pest or weed control at 125 g/ha (Kochia (Kochia scoparia) [10]) | pest or weed control at 31 g/ha (Kochia (Kochia scoparia) [10]) | pest or weed control at 125 g/ha [12] | pest or weed control at 31 g/ha [12] | pest or weed control at 125 g/ha [13] | pest or weed control at 31 g/ha [13] | pest or weed control at 125 g/ha [14] | pest or weed control at 31 g/ha [14] | plant injury at 125 g/ha [15] | plant injury at 31 g/ha [15] | pest or weed control at 250 g/ha [18]

CN1C[C@H](c2ccc(C(F)F)cc2)[C@@H](C(=O)Nc2cccnc2F)C1=O [Compound 1274]
30%: pest or weed control at 31 g/ha (Kochia (Kochia scoparia) [3]) | pest or weed control at 31 g/ha [4] | pest or weed control at 31 g/ha [6] | plant injury at 125 g/ha (corn (Zea mays)) | plant injury at 31 g/ha (corn (Zea mays)) | pest or weed control at 125 g/ha [8] | pest or weed control at 125 g/ha [13]
100%: pest or weed control at 250 g/ha [16]
0%: pest or weed control at 31 g/ha [1] | pest or weed control at 31 g/ha [7] | pest or weed control at 31 g/ha [8] | pest or weed control at 31 g/ha [13] | pest or weed control at 31 g/ha [14] | pest or weed control at 250 g/ha (rice (Oryra sativa)) | pest or weed control at 250 g/ha [18]
90%: pest or weed control at 125 g/ha [2] | pest or weed control at 125 g/ha [4] | pest or weed control at 125 g/ha [9] | pest or weed control at 125 g/ha [11]
50%: pest or weed control at 31 g/ha [9] | pest or weed control at 31 g/ha (Kochia (Kochia scoparia) [10]) | pest or weed control at 31 g/ha [11] | pest or weed control at 31 g/ha [12]
80%: pest or weed control at 31 g/ha [2] | pest or weed control at 125 g/ha [5]
60%: pest or weed control at 125 g/ha [12] | plant injury at 125 g/ha [15]
20%: pest or weed control at 125 g/ha [1] | pest or weed control at 31 g/ha [5] | pest or weed control at 125 g/ha [7] | pest or weed control at 125 g/ha [14] | plant injury at 31 g/ha [15] | pest or weed control at 250 g/ha [17]
70%: pest or weed control at 125 g/ha (Kochia (Kochia scoparia) [3]) | pest or weed control at 125 g/ha [6] | pest or weed control at 125 g/ha (Kochia (Kochia scoparia) [10])

Reference: US12077503B2, “Substituted cyclic amides and their use as herbicides” (FMC CORPORATION, priority 2015, dated 2024)
